The assay deals with T1, Isoform 2 of Nuclear receptor ROR-gamma (RORgT) (Homo sapiens, UniProt P51449).
T1 sequence (P51449 whole entry): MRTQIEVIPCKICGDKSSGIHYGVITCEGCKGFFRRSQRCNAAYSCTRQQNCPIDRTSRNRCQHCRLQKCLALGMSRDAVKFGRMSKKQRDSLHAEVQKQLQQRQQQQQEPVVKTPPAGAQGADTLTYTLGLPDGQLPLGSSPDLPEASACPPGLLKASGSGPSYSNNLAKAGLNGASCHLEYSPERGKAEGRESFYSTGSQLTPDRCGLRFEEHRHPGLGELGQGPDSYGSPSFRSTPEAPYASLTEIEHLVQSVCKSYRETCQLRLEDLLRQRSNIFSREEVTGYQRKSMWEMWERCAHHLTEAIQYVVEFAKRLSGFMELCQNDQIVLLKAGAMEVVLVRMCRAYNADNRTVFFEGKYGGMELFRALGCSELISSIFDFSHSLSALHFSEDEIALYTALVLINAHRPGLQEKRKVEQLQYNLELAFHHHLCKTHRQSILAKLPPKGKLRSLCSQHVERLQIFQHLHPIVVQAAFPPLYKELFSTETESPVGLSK
Briefly: TR-FRET Assay. Particulars: pH 7; 4 °C. The procedure:
To identify novel antagonists of RORgammaT, an assay was developed which employs the interaction of RORgammaT with its co-activator peptide SRC1_2. […] The RORγ-LBD protein was purified by glutathione sepharose chromatography. […] The mixture was then diluted in assay buffer (50 mM Tris pH 7.0, 50 mM KCl, 1 mM EDTA, 0.1 mM DTT) to obtain RORγ-LBD final concentration of 3 nM in 384-well assay plate. Compounds to be tested were injected to the assay plate using Acoustic Droplet Ejection technology by Echo 550 liquid handler (Labcyte, Calif.).
In general terms: In TR-FRET formats the signal depends on donor and acceptor labels being close together.

`CC1CC(c2nn(C(=O)c3c(Cl)cccc3C(F)(F)F)c3cccc(F)c23)=CC(O)C1C(=O)O` (stereo unspecified) [US9487490, 6C]: the midpoint of inhibition, the IC50, lay at 5 nM.

For orientation: IC50 means the concentration that inhibits the measured activity by half. Read a low IC50 as greater potency.
